In patent publication US20220119354A1, “DIAMINO-SUBSTITUTED PYRIDINES AND PYRIMIDINES AS HERBICIDES” (FMC Corporation, priority 2019, published 2022):

Legend:
Assay type in all cases: in vivo
[1] = test system: barnyardgrass (Echinochloa crus-galli); assay: Test A preemergence, barnyardgrass; settings: 0 to 100 scale, 0 is no effect, 100 is complete control
Outline: (§1)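 Greenhouse pot test, loam/sand soil. Pre: directed soil spray at planting; post: foliar spray at 1–2 leaf stage (2–10 cm). Chemical in non-phytotoxic solvent + surfactant. Visual rating ~10 d, 0 = no effect, 100 = complete control.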

kochia (Kochia scoparia) [2] = assay: Test A preemergence, kochia; settings: 0 to 100 scale, 0 is no effect, 100 is complete control
Outline: as §1

[3] = test system: ragweed (common ragweed, Ambrosia elatior); assay: Test A preemergence, ragweed; settings: 0 to 100 scale, 0 is no effect, 100 is complete control
Outline: as §1

[4] = test system: ryegrass, Italian (Lolium multiflorum); assay: Test A preemergence, Italian ryegrass; settings: 0 to 100 scale, 0 is no effect, 100 is complete control
Outline: as §1

[5] = test system: foxtail, giant (Setaria faberii); assay: Test A preemergence, giant foxtail; settings: 0 to 100 scale, 0 is no effect, 100 is complete control
Outline: as §1

[6] = test system: pigweed (Amaranthus retroflexus); assay: Test A preemergence, pigweed; settings: 0 to 100 scale, 0 is no effect, 100 is complete control
Outline: as §1

[7] = test system: barnyardgrass (Echinochloa crus-galli); assay: Test A postemergence, barnyardgrass; settings: 0 to 100 scale, 0 no effect, 100 complete control
Outline: as §1

kochia (Kochia scoparia) [8] = assay: Test A postemergence, kochia; settings: 0 to 100 scale, 0 no effect, 100 complete control
Outline: as §1

[9] = test system: ragweed (common ragweed, Ambrosia elatior); assay: Test A postemergence, ragweed; settings: 0 to 100 scale, 0 no effect, 100 complete control
Outline: as §1

[10] = test system: ryegrass, Italian (Lolium multiflorum); assay: Test A postemergence, Italian ryegrass; settings: 0 to 100 scale, 0 no effect, 100 complete control
Outline: as §1

[11] = test system: foxtail, giant (Setaria faberii); assay: Test A postemergence, giant foxtail; settings: 0 to 100 scale, 0 no effect, 100 complete control
Outline: as §1

[12] = test system: pigweed (Amaranthus retroflexus); assay: Test A postemergence, pigweed; settings: 0 to 100 scale, 0 no effect, 100 complete control
Outline: as §1

[13] = test system: wheat (Triticum aestivum); assay: Test A postemergence, wheat; settings: 0 to 100 scale, 0 no effect, 100 complete control
Outline: as §1

corn (Zea mays) = assay: Test A postemergence, corn; settings: 0 to 100 scale, 0 no effect, 100 complete control
Outline: as §1

[14] = test system: blackgrass (Alopecurus myosuroides); assay: Test A postemergence, blackgrass; settings: 0 to 100 scale, 0 no effect, 100 complete control
Outline: as §1

[15] = test system: galium (catchweed bedstraw, Galium aparine); assay: Test A postemergence, galium; settings: 0 to 100 scale, 0 no effect, 100 complete control
Outline: as §1

rice (Oryza sativa) = assay: Test B flooded paddy test, rice; settings: Flood, 250 g ai/ha, applied to paddy water, 2-leaf stage, visual evaluation after 13 to 15 d
Outline: (§2)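 Rating: 0 = no effect, 100 = complete control, visual, relative to untreated plants. Conditions: 2-leaf stage, 3 cm flood kept constant, compound put directly into water, 13–15 d greenhouse.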

[16] = test system: sedge, umbrella (small-flower umbrella sedge, Cyperus difformis); assay: Test B flooded paddy test, umbrella sedge; settings: Flood, 250 g ai/ha, applied to paddy water, 2-leaf stage, visual evaluation after 13 to 15 d
Outline: as §2

[17] = test system: ducksalad (Heteranthera limosa); assay: Test B flooded paddy test, ducksalad; settings: Flood, 250 g ai/ha, applied to paddy water, 2-leaf stage, visual evaluation after 13 to 15 d
Outline: as §2

[18] = test system: barnyardgrass (Echinochloa crus-galli); assay: Test B flooded paddy test, barnyardgrass; settings: Flood, 250 g ai/ha, applied to paddy water, 2-leaf stage, visual evaluation after 13 to 15 d
Outline: as §2

| Compound | Barnyardgrass plant response rating ([1]; 125 g ai/ha) | Barnyardgrass plant response rating ([1]; 500 g ai/ha) | Kochia plant response rating (kochia (Kochia scoparia) [2]; 125 g ai/ha) | Kochia plant response rating (kochia (Kochia scoparia) [2]; 500 g ai/ha) | Ragweed plant response rating ([3]; 125 g ai/ha) | Ragweed plant response rating ([3]; 500 g ai/ha) | Ryegrass, Italian plant response rating ([4]; 125 g ai/ha) | Ryegrass, Italian plant response rating ([4]; 500 g ai/ha) | Foxtail, Giant plant response rating ([5]; 125 g ai/ha) | Foxtail, Giant plant response rating ([5]; 500 g ai/ha) | Pigweed plant response rating ([6]; 125 g ai/ha) | Pigweed plant response rating ([6]; 500 g ai/ha) | Plant response rating, Barnyardgrass ([7]; 125 g ai/ha) | Plant response rating, Barnyardgrass ([7]; 500 g ai/ha) | Plant response rating, Kochia (kochia (Kochia scoparia) [8]; 125 g ai/ha) | Plant response rating, Kochia (kochia (Kochia scoparia) [8]; 500 g ai/ha) | Plant response rating, Ragweed ([9]; 125 g ai/ha) | Plant response rating, Ragweed ([9]; 500 g ai/ha) | Plant response rating, Ryegrass, Italian ([10]; 125 g ai/ha) | Plant response rating, Ryegrass, Italian ([10]; 500 g ai/ha) | further results |
| --- | --- | --- | --- | --- | --- | --- | --- | --- | --- | --- | --- | --- | --- | --- | --- | --- | --- | --- | --- | --- | --- |
| C[C@H](Nc1nc(N)c(C(F)(F)F)c(C(F)(F)F)n1)c1cc2ccccc2o1 [Compound 66] | 0 | 0 | 0 | 0 | 0 | 0 | 0 | 0 | 0 | 0 | 0 | 0 | 0 | 30 | 20 | 90 | 0 | 20 | 0 | 0 | Plant response rating, Foxtail, Giant ([11]; 125 g ai/ha): 0; Plant response rating, Foxtail, Giant ([11]; 500 g ai/ha): 0; Plant response rating, Pigweed ([12]; 125 g ai/ha): 30; Plant response rating, Pigweed ([12]; 500 g ai/ha): 100; Plant response rating, Wheat ([13]; 125 g ai/ha): 0; Plant response rating, Wheat ([13]; 500 g ai/ha): 0; Plant response rating, Corn (corn (Zea mays); 125 g ai/ha): 0; Plant response rating, Corn (corn (Zea mays); 500 g ai/ha): 20; Plant response rating, Blackgrass ([14]; 125 g ai/ha): 0; Plant response rating, Blackgrass ([14]; 500 g ai/ha): 30; Plant response rating, Galium ([15]; 125 g ai/ha): 30; Plant response rating, Galium ([15]; 500 g ai/ha): 40; Plant response rating, Rice (0 to 100 scale, 0 is no effect, 100 is complete control) (rice (Oryza sativa)): 0; Plant response rating, Sedge, Umbrella (0 to 100 scale, 0 is no effect, 100 is complete control) [16]: 0; Plant response rating, Ducksalad (0 to 100 scale, 0 is no effect, 100 is complete control) [17]: 0; Plant response rating, Barnyardgrass (0 to 100 scale, 0 is no effect, 100 is complete control) [18]: 0 |
| C[C@H](Nc1ncc(C(F)(F)F)c(N)n1)c1coc2ccc(F)cc12 [Compound 56] | 70 | 70 | 0 | 0 | 20 | 80 | 0 | 0 | 0 | 0 | 0 | 30 | 50 | 30 | 0 | 40 | 0 | 30 | 0 | 0 | Plant response rating, Foxtail, Giant ([11]; 125 g ai/ha): 10; Plant response rating, Foxtail, Giant ([11]; 500 g ai/ha): 20; Plant response rating, Pigweed ([12]; 125 g ai/ha): 20; Plant response rating, Pigweed ([12]; 500 g ai/ha): 60; Plant response rating, Wheat ([13]; 125 g ai/ha): 0; Plant response rating, Wheat ([13]; 500 g ai/ha): 0; Plant response rating, Corn (corn (Zea mays); 125 g ai/ha): 0; Plant response rating, Corn (corn (Zea mays); 500 g ai/ha): 10; Plant response rating, Blackgrass ([14]; 125 g ai/ha): 0; Plant response rating, Blackgrass ([14]; 500 g ai/ha): 0; Plant response rating, Galium ([15]; 125 g ai/ha): 0; Plant response rating, Galium ([15]; 500 g ai/ha): 0; Plant response rating, Rice (0 to 100 scale, 0 is no effect, 100 is complete control) (rice (Oryza sativa)): 0; Plant response rating, Sedge, Umbrella (0 to 100 scale, 0 is no effect, 100 is complete control) [16]: 0; Plant response rating, Ducksalad (0 to 100 scale, 0 is no effect, 100 is complete control) [17]: 0; Plant response rating, Barnyardgrass (0 to 100 scale, 0 is no effect, 100 is complete control) [18]: 0 |
